Results reported in publication PMC10165273, “Itch receptor MRGPRX4 interacts with the receptor activity–modifying proteins” (The Journal of Biological Chemistry, 2023).
Where “and” joins values, the source holds several entries; their conditions need not be identical. Equal values may be shown once.

Experiments:
MRGPRX4 + RAMP1 = target: T1, MRGPRX4 + RAMP1 (Homo sapiens, UniProt Q96LA9); assay: IP1 accumulation, MRGPRX4 coexpressed with RAMP1; assay type: cell-based; set-up: key to IP1 Basal / response to agonist, X4:ramp1.I:1 / response to agonist, X4:ramp1.I:2 / response to agonist, X4:ramp1.I:0.25 / response to agonist, X4:ramp1.I:0.5: % IP1; unstimulated mock = 0%, fully stimulated MRGPRX4 = 100%; settings: Figure 4c-f, agonist 100µM, MRGPRX4 = 100
T1 construct: expressed in transfected cells; host or cells: HEK293T
T1 sequence (Q96LA9 whole entry): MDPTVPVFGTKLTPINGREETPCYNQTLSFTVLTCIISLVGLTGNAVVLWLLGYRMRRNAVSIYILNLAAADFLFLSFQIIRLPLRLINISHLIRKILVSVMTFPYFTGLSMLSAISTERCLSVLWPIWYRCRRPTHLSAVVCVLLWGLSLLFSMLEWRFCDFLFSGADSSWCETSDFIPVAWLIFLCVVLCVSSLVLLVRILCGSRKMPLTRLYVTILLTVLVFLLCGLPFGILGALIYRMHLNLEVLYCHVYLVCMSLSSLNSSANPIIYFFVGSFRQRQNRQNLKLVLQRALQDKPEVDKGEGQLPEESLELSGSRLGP
Protocol: (§1) HEK293T cells were transfected with 1 pg/cell of MRGPRX4 DNA, and the amount of DNA was kept constant at 2 pg/cell with pcDNA3.1(+) empty vector, unless otherwise specified. Twenty four hours after transfection, IP1 assay was performed as previously described ([51]). When applicable, cells were treated with 1 μM YM254890 (YM) or different concentrations of U73122 for 1 h prior to addition of agonist or buffer. After incubation for 2 h, HTRF reagents and IP1 calibration standards were added and incubated for 2 h in the dark at room temperature. Time-resolved fluorescence signals were read on the BioTek Synergy NEO-TRF Hybrid multi-mode reader (BioTek Instruments). All data were carried out in three independent experiments with three technical replicate each.
For a homogenous transfection of MRGPRX4, a master mix of MRGPRX4 DNA was made prior to addition of the RAMP DNA. […]
(§2) Data reduction, standard calibration, and transformation of HTRF data were performed as previously described ([51]). Normalized IP1 values were calculated relative to the unstimulated mock-transfected cells (set to 0%) and fully stimulated MRGPRX4 (alone if applicable) (set to 100%).

MRGPRX4 + RAMP3 [1] = target: T2, MRGPRX4 + RAMP3 (Homo sapiens, UniProt Q96LA9); assay: IP1 accumulation, MRGPRX4 coexpressed with RAMP3; assay type: cell-based; set-up: key: % IP1; unstimulated mock = 0%, fully stimulated MRGPRX4 = 100%; settings: Figure 4c-f; agonist 100µM; X4:ramp3 1:2; MRGPRX4 = 100
T2 construct: expressed in transfected cells; host or cells: HEK293T
T2 sequence (Q96LA9 whole entry): as above

[2] = test system: mock-transfected HEK293T cells; assay: IP1 accumulation, mock-transfected cells; assay type: cell-based, human; set-up: IP1 Basal / IP1 span / IP1 Emax / IP1 accumulation, dose-response (Figure 1a) / IP1 accumulation with YM (Figure 1c) / IP1 accumulation: unit not given here; settings: pcDNA (mock), individual replicates
Protocol: as §1
Validation of CALCRL constructs was assayed by cotransfecting HEK293T cells with different tagged versions of CALCRL alone or with each RAMP and with the promiscuous Gqs5 Gq chimera protein, at a respective DNA ratio of 1:1:0.5. Gqs5 is an engineered Gq protein containing the last five amino acid residues of Gs, which allows Gs-coupled GPCRs to signal through Gq downstream signaling pathways ([55]). The homogenous transfection method described above was used for all DNA mixes. CALCRL:RAMP2:Gqs5-transfected cells served as positive control for RAMP functionality.
as §2

MRGPRX4 + RAMP3 [3] = target: T2, MRGPRX4 + RAMP3; assay: IP1 accumulation, MRGPRX4 coexpressed with RAMP3; assay type: cell-based; set-up: key to IP1 Basal / response to agonist, X4:ramp3.I:0.25 / response to agonist, X4:ramp3.I:0.5 / response to agonist, X4:ramp3.I:1: % IP1; unstimulated mock = 0%, fully stimulated MRGPRX4 = 100%; settings: Figure 4c-f, agonist 100µM, MRGPRX4 = 100
Protocol: as §1
(§3) For RAMP DNA titration assay, HEK293T cells were cotransfected with a constant amount of 1 pg/cell of FLAG-MRGPRX4-GFP10-1D4 to which a serial dilution of 1, 0.75, 0.5, 0.25, or 0 pg/cell of each HA-RAMP-OLLAS was added. For a homogenous transfection of MRGPRX4, a master mix of MRGPRX4 DNA was made prior to addition of the RAMP DNA. […]
as §2

MRGPRX4 = target: T3, MRGPRX4 (Homo sapiens, UniProt Q96LA9); assay: IP1 accumulation HTRF assay, MRGPRX4; assay type: cell-based; set-up: key to IP1 Basal / IP1 accumulation with YM (Figure 1c) / response to agonist, MRGPRX4 / IP1 accumulation: % IP1: unstimulated mock-transfected = 0%, fully stimulated MRGPRX4 = 100%
T3 construct: expressed in transfected cells; host or cells: HEK293T
T3 sequence (Q96LA9 whole entry): as above
Protocol: as §1
For characterization of the Tet-On Nluc-HT7-MRGPRX4-GFP10-1D4 construct, HEK293T cells were transfected as previously described with some modifications. Dox dose-response of NLuc-HT7-MRGPRX4-GFP10-1D4 DNA titration was assayed by transfecting HEK293T cells with either 1 or 2 pg/cell of NLuc-HT7-MRGPRX4-GFP10-1D4 construct. Receptor expression was induced 4 h after transfection with addition of different concentrations of dox for 20 h. For the RAMP DNA titration assay, cells were cotransfected with a constant amount of 1 pg/cell of NLuc-HT7-MRGPRX4-GFP10-1D4 DNA and 1, 0.75, 0.5, or 0 pg/cell of each HA-RAMP-OLLAS with the homogenous transfection method. Four hours after transfection, receptor expression was induced with addition of 1000 ng/ml dox. Twenty hours after induction, IP1 assay was performed.
as §2

MRGPRX4 + RAMP2 = target: T4, MRGPRX4 + RAMP2 (Homo sapiens, UniProt Q96LA9); assay: IP1 accumulation, MRGPRX4 coexpressed with RAMP2; assay type: cell-based; set-up: key to response to agonist, X4:ramp2.I:2: % IP1: mock-transfected unstimulated = 0%, fully stimulated MRGPRX4 = 100%; key to IP1 Basal / response to agonist, X4:ramp2.I:0.25 / response to agonist, X4:ramp2.I:0.5 / response to agonist, X4:ramp2.I:1: % IP1; unstimulated mock = 0%, fully stimulated MRGPRX4 = 100%; settings: Figure 4c-f, agonist 100µM, MRGPRX4 = 100
T4 construct: expressed in transfected cells; host or cells: HEK293T
T4 sequence (Q96LA9 whole entry): as above
Protocol: as §1, §3, §2

C[C@H](CCC(=O)O)[C@H]1CC[C@H]2[C@@H]3[C@@H](O)C[C@@H]4C[C@H](O)CC[C@]4(C)[C@H]3CC[C@]12C [UDCA, ursodeoxycholic acid]
response to agonist, X4:ramp1.I:0.25 (MRGPRX4 + RAMP1; X4:ramp1 1:0.25): 100.75 and 106.142 | response to agonist, X4:ramp1.I:0.5 (MRGPRX4 + RAMP1; X4:ramp1 1:0.5): 100.618 and 106.983 | response to agonist, X4:ramp1.I:1 (MRGPRX4 + RAMP1; X4:ramp1 1:1): 95.1306 and 98.4249 | response to agonist, X4:ramp1.I:2 (MRGPRX4 + RAMP1; X4:ramp1 1:2): 83.6233 and 101.678 | response to agonist, X4:ramp3.I:2 (MRGPRX4 + RAMP3 [1]): 54.7688 and 68.6572 | IP1 accumulation, dose-response (Figure 1a) ([2]; log [agonist] (M) -4): 0.4812 and 0.4346 and 0.8349 and -0.1011 and 0.2178 and -0.3214 and 0.5013 and -0.2736 and -1.513 and -0.6571 and 0.03201 and -0.9921 | IP1 accumulation, dose-response (Figure 1a) ([2]; log [agonist] (M) -4.95424): 0.8578 and 0.7057 and 0.8792 and 0.1679 and 0.2632 and -0.1306 and 0.2729 and -0.3135 and 0.01077 and -0.3984 and 1.094 and -0.3997 | IP1 accumulation, dose-response (Figure 1a) ([2]; log [agonist] (M) -5.90849): 0.6444 and 0.5533 and 0.8424 and 0.3166 and 0.4567 and -0.2351 and 0.4796 and -0.05346 and 0.7094 and 0.5317 and 1.212 and 0.8514 | IP1 accumulation, dose-response (Figure 1a) ([2]; log [agonist] (M) -6.86273): 1.003 and 1.057 and 1.14 and 0.6057 and 0.714 and 0.2582 and 0.7883 and 0.3494 | response to agonist, X4:ramp3.I:0.25 (MRGPRX4 + RAMP3 [3]; X4:ramp3 1:0.25): 86.9905 and 87.7685 | response to agonist, X4:ramp3.I:0.5 (MRGPRX4 + RAMP3 [3]; X4:ramp3 1:0.5): 74.5043 and 88.6761 | response to agonist, X4:ramp3.I:1 (MRGPRX4 + RAMP3 [3]; X4:ramp3 1:1): 78.3418 and 68.7873 | activation at 33.333 µM (MRGPRX4; 2 h, log [agonist] (M) -4.47712, MRGX4-transfected, individual replicates, read-out: IP1 accumulation, dose-response (Figure 1a)): 16.7% | activation at 11.111 µM (MRGPRX4; 2 h, log [agonist] (M) -4.95424, MRGX4-transfected, individual replicates, read-out: IP1 accumulation, dose-response (Figure 1a)): 14.8% | activation at 1.2346 µM (MRGPRX4; 2 h, log [agonist] (M) -5.90849, MRGX4-transfected, individual replicates, read-out: IP1 accumulation, dose-response (Figure 1a)): 12.9% | activation at 0.4115 µM (MRGPRX4; 2 h, log [agonist] (M) -6.38561, MRGX4-transfected, individual replicates, read-out: IP1 accumulation, dose-response (Figure 1a)): 12.7% | activation at 0.13717 µM (MRGPRX4; 2 h, log [agonist] (M) -6.86273, MRGX4-transfected, individual replicates, read-out: IP1 accumulation, dose-response (Figure 1a)): 12.1% | response to agonist, MRGPRX4 (MRGPRX4; Figure 4c-f, agonist 100µM, MRGPRX4 alone (reference = 100)): 100 | IP1 Basal (MRGPRX4; MRGPRX4 (Fig. 1A), HEK293T, normalized to 100 μM nateglinide): 13.66 | response to agonist, X4:ramp2.I:0.25 (MRGPRX4 + RAMP2; X4:ramp2 1:0.25): 79.4398 and 88.1338 | response to agonist, X4:ramp2.I:0.5 (MRGPRX4 + RAMP2; X4:ramp2 1:0.5): 67.697 and 77.1393 | response to agonist, X4:ramp2.I:1 (MRGPRX4 + RAMP2; X4:ramp2 1:1): 40.116 and 40.4903 | response to agonist, X4:ramp2.I:2 (MRGPRX4 + RAMP2; X4:ramp2 1:2): 13.5988 and 14.044
